In US12516056B2, “Compounds for inhibition of janus kinase 1” (MANKIND PHARMA LTD., priority 2019, dated 2026):
Counter-ions that a name gives are not always drawn. Like-named read-outs stand apart in the source and are kept apart here.

Tests used:
Recombinant JAK1 = target: T1, Recombinant JAK1 (Homo sapiens, UniProt P23458); test: JAK biochemical assay (LANCE Ultra TR-FRET), JAK1; conditions: recombinant JAK1, TR-FRET; read-out: Biochemical Assay (μM) JAK1
T1 construct: purchased Carna Biosciences
Procedure, shortened: (§1)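 % inhibition relative to vehicle was derived from TR-FRET signal proportional to ULight-substrate phosphorylation. Reactions used recombinant kinase in HEPES pH 7.5 buffer containing EGTA, MgCl2, DTT and Tween-20.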

Recombinant JAK2 = target: T2, Recombinant JAK2 (Homo sapiens, UniProt O60674); test: JAK biochemical assay (LANCE Ultra TR-FRET), JAK2; conditions: recombinant JAK2, TR-FRET; read-out: Biochemical Assay (μM) JAK2
T2 construct: purchased Carna Biosciences
Procedure, shortened: as §1

Recombinant JAK3 = target: T3, Recombinant JAK3 (Homo sapiens, UniProt P52333); test: JAK biochemical assay (LANCE Ultra TR-FRET), JAK3; conditions: recombinant JAK3, TR-FRET; read-out: Biochemical Assay (μM) JAK3
T3 construct: purchased Carna Biosciences
T3 sequence (P52333 1-1124): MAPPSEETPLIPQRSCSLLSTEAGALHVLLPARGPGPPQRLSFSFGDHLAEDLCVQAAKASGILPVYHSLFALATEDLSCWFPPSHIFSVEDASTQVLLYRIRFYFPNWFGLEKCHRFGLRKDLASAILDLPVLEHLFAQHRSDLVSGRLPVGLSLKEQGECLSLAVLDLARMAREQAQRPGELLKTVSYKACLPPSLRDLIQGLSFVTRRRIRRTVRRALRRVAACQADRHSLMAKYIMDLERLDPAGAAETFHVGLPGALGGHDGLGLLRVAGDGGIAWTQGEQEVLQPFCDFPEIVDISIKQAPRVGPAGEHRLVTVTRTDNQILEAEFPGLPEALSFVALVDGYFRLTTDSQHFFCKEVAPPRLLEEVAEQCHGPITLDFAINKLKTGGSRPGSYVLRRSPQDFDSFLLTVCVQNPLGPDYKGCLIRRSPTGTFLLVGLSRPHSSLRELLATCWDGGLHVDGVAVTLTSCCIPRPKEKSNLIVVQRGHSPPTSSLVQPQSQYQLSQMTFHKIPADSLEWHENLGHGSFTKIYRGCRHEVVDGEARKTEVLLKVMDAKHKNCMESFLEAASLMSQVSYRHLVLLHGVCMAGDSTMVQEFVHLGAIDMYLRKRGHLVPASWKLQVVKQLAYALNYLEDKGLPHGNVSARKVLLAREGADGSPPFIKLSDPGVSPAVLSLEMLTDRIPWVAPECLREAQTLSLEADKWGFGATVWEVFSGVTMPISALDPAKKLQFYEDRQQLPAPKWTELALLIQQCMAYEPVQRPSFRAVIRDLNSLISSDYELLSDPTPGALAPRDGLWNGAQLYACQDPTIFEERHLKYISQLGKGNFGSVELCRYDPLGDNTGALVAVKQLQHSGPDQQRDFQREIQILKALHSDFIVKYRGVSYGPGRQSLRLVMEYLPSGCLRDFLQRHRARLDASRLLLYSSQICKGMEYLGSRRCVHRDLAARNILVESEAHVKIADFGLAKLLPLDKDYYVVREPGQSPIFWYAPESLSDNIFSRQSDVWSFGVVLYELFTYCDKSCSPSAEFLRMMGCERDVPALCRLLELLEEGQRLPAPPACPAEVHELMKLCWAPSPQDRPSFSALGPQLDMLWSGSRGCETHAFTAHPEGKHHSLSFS
Procedure, shortened: as §1

Recombinant TYK2 = target: T4, Recombinant TYK2 (Homo sapiens, UniProt P29597); test: JAK biochemical assay (LANCE Ultra TR-FRET), TYK2; conditions: recombinant TYK2, TR-FRET; read-out: Biochemical Assay (μM) TYK2
T4 construct: purchased Carna Biosciences
Procedure, shortened: as §1

[1] = tested on: STAT3 phosphorylation by IL-6 in TF-1 cells; test: JAK cellular assay: STAT3 phosphorylation by IL-6 in TF-1 cells (HTRF); assay type: cell-based; conditions: Homo sapiens, TF-1, TF-1 cells, IL-6 30 ng/ml, pSTAT3 HTRF; read-out: Cell Based Assay (μM) TF-1/IL-6/pSTAT3
Procedure, shortened: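 Phospho-STAT3 (IL-6, 30 ng/ml) and phospho-STAT5 (GMCSF, 5 ng/ml) read by HTRF in lysates after 20 min cytokine exposure, minus unstimulated-cell background. Cells were serum-starved overnight, plated at 120,000/well, given compound 30 min at 37 °C beforehand; DMSO 0.2% final.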

[2] = tested on: STAT5 phosphorylation by IL-2 in HT-2 cells; test: STAT5 phosphorylation by IL-2 in HT-2 cells (HTRF); assay type: cell-based; conditions: IL-2 50 U/ml, pSTAT5 HTRF, read-out: Cell Based Assay (μM) HT-2/IL-2/pSTAT5
Experimental: HT-2 cells were starved […] in RPMI phenol red with 10% fetal bovine serum for 4 hours in CO2 incubator maintained at 37° c. Compounds were diluted in DMSO and added to 96 well plate containing a final density of 1,20,000 cells per well. Cells and compounds are incubated for 30 minutes in CO2 incubator maintained at 37° C. and final DMSO concentration in cell based assay was 0.2%. Human recombinant cytokine, IL-2 (50 U/ml) was added to the plate containing cells and compound and incubated for 20 minutes with gentle tapping/shaking at every 5 minutes once. Compound mediated effects on STAT5 phosphorylation was measured in the lysates prepared by using CISBIO pSTAT5 detection kit by HTRF method. Background signal obtained from cells which were not activated with cytokines, was subtracted from vehicle controls and compound treated wells.

T1 sequence (P23458 whole entry): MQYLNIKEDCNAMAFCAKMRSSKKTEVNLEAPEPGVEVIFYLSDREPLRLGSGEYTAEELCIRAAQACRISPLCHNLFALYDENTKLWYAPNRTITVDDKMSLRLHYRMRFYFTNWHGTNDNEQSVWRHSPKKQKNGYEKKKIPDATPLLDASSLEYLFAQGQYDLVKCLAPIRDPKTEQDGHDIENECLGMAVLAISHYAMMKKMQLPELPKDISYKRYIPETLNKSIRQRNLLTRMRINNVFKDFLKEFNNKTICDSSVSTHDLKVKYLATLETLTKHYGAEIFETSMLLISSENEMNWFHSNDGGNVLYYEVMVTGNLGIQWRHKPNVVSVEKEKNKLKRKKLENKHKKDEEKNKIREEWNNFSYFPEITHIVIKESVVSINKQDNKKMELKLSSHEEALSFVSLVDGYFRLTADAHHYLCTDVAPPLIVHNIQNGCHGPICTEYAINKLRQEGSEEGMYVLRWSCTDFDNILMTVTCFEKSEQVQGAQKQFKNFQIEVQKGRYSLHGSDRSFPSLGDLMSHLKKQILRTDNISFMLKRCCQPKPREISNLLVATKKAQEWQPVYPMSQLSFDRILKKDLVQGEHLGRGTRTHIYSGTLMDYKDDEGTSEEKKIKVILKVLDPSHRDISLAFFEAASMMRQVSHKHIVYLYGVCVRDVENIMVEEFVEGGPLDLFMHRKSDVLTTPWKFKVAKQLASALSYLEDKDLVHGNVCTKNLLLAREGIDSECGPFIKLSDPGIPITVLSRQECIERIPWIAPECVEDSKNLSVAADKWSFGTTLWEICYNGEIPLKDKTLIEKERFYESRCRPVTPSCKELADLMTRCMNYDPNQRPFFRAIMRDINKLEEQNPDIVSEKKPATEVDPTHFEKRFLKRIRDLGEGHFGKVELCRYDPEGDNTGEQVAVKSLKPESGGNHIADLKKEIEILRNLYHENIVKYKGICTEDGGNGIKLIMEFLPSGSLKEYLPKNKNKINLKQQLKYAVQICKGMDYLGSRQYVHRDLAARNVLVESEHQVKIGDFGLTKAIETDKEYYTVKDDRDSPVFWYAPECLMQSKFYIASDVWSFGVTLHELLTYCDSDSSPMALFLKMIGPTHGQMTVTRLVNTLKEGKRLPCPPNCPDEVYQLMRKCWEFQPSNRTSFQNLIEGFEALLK
T2 sequence (O60674 whole entry): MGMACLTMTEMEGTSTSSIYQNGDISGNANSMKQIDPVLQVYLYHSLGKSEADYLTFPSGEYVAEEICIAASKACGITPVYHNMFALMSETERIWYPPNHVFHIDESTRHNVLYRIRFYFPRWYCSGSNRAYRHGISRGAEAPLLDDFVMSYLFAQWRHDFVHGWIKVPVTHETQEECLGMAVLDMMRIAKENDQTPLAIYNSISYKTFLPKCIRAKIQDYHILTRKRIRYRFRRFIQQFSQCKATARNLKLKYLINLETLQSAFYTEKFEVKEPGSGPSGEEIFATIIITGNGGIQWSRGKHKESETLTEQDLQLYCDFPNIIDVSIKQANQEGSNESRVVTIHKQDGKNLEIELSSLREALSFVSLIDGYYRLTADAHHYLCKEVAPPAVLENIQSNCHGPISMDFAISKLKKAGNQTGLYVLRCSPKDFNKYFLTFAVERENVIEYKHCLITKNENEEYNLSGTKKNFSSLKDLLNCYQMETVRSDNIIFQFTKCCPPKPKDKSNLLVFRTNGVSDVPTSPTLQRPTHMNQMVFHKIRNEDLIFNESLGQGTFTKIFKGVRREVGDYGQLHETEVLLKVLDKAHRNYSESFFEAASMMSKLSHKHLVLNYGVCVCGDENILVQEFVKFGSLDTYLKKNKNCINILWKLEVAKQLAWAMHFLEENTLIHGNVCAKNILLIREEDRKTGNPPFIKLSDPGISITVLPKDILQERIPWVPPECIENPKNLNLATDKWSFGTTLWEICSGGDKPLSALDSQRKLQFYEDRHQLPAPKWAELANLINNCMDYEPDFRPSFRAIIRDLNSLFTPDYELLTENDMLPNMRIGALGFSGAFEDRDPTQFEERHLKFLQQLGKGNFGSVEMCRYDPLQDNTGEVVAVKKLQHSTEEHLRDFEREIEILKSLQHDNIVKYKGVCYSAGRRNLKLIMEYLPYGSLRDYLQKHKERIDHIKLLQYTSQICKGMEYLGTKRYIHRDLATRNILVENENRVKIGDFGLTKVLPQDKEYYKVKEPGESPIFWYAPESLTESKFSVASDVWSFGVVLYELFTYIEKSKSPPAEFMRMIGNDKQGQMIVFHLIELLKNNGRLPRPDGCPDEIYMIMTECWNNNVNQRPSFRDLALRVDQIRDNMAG
T4 sequence (P29597 whole entry): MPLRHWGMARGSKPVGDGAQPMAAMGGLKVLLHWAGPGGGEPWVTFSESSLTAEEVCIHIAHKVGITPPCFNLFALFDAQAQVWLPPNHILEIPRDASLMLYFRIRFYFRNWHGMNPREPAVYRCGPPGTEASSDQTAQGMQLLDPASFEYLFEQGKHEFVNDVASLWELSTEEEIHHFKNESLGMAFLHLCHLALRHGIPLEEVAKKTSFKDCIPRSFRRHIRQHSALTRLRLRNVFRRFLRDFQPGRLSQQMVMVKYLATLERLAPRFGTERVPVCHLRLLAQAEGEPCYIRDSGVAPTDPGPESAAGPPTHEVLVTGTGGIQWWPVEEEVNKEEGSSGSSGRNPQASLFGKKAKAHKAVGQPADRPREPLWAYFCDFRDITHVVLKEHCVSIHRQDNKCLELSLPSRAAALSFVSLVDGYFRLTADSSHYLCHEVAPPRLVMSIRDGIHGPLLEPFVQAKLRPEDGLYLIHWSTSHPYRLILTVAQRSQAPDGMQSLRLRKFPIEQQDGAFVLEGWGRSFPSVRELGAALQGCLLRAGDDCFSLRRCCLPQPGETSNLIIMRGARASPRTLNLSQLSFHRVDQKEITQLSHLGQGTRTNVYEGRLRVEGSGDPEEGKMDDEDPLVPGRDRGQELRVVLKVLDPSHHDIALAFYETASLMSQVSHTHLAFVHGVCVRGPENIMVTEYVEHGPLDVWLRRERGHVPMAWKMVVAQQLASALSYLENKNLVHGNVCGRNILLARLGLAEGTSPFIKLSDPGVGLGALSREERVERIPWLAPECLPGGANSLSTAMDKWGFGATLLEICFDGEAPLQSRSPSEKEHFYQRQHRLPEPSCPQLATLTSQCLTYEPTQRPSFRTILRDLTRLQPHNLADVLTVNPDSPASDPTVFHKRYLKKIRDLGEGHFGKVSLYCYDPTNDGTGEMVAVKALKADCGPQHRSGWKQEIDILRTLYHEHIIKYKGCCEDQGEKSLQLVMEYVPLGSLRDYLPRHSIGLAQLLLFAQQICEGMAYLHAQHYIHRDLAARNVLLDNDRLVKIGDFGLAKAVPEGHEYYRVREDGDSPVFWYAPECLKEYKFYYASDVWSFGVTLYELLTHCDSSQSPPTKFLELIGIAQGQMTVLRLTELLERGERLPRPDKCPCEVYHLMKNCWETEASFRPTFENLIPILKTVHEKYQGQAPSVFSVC

Row | Compound | IC50 (Recombinant JAK1) [µM] | IC50 (Recombinant JAK2) [µM] | IC50 (Recombinant JAK3) [µM] | IC50 (Recombinant TYK2) [µM] | IC50 [1] [µM] | IC50 ([2]; HT2, HT-2 cells) [µM] | IC50 ([2]; HT-2 cells) [µM]
1 | N#CCCC(c1ccc(-n2cc(-c3ccnc4[nH]cnc34)cn2)nc1)C(F)(F)F (stereo not drawn) [Example 1156, 4-(6-(4-(3H-imidazo[4,5-b]pyridin-7-yl)-1H-pyrazol-1-yl)pyridin-3-yl)-5,5,5-trifluoropentanenitrile] | > 0.1 | > 0.5 | > 0.5 | > 1 | > 0.5 | > 1 | 
2 | N#CC(C(=O)NCC(F)(F)F)c1ccc(-n2cc(-c3ccnc4[nH]cnc34)cn2)nc1 (stereo not drawn) [Example 1168, 2-(6-(4-(3H-imidazo[4,5-b]pyridin-7-yl)-1H-pyrazol-1-yl)pyridin-3-yl)-2-cyano-N-(2,2,2-trifluoroethyl)acetamide] | > 0.1 | > 0.5 | > 0.1 | > 1 | > 1 | > 1 | 
3 | N#CCC(=O)NC(c1ccc(-n2cc(-c3ccnc4[nH]cnc34)cn2)nc1)C(F)(F)F (stereo not drawn) [Example 1192, N-(1-(6-(4-(3H-imidazo[4,5-b]pyridin-7-yl)-1H-pyrazol-1-yl)pyridin-3-yl)-2,2,2-trifluoroethyl)-2-cyanoacetamide] | < 0.1 | < 0.1 | < 0.1 | > 1 | > 0.8 | > 0.8 | 
4 | CNC(=O)C[C@H](c1ccc(-n2cc(-c3ccnc4[nH]cnc34)cn2)nc1)C(F)(F)F [Example 1213, (R)-3-(6-(4-(3H-imidazo[4,5-b]pyridin-7-yl)-1H-pyrazol-1-yl)pyridin-3-yl)-4,4,4-trifluoro-N-methylbutanamide] | < 0.1 | < 0.1 | < 0.1 | > 0.5 | 0.55 | 0.7 | 
5 | CNC(=O)C[C@@H](c1ccc(-n2cc(-c3ccnc4[nH]cnc34)cn2)nc1)C(F)(F)F [Example 1214, (S)-3-(6-(4-(3H-imidazo[4,5-b]pyridin-7-yl)-1H-pyrazol-1-yl)pyridin-3-yl)-4,4,4-trifluoro-N-methylbutanamide] | < 0.1 | < 0.5 | < 0.1 | > 1 | > 1 | > 1 | 
6 | O=S(=O)(CC[C@@H](c1ccc(-n2cc(-c3ccnc4[nH]cnc34)cn2)nc1)C(F)(F)F)C1CC1 [Example 1216, 7-(1-(5-((S)-4-(cyclopropylsulfonyl)-1,1,1-trifluorobutan-2-yl)pyridin-2-yl)-1H-pyrazol-4-yl)-3H-imidazo[4,5-b]pyridine] | < 0.1 | < 0.1 | < 0.1 | > 0.5 | 0.28 | 0.51 | 
7 | OC(CN1CCOCC1)(c1ccc(-n2cc(-c3ccnc4[nH]cnc34)cn2)nc1)C(F)(F)F (stereo not drawn) [Example 1229, 2-(6-(4-(3H-imidazo[4,5-b]pyridin-7-yl)-1H-pyrazol-1-yl)pyridin-3-yl)-1,1,1-trifluoro-3-morpholinopropan-2-ol] | < 0.1 | < 0.1 | < 0.1 | > 1 | > 1 | > 1 | 
8 | OC(CCN1CCOCC1)(c1ccc(-n2cc(-c3ccnc4[nH]cnc34)cn2)nc1)C(F)(F)F (stereo not drawn) [Example 1230, 2-(6-(4-(3H-imidazo[4,5-b]pyridin-7-yl)-1H-pyrazol-1-yl)pyridin-3-yl)-1,1,1-trifluoro-4-morpholinobutan-2-ol] | < 0.1 | < 0.1 | < 0.1 | > 0.5 | > 0.5 | > 0.5 | 

Continued, values first:

Row | IC50 (Recombinant JAK1) [µM] | IC50 (Recombinant JAK2) [µM] | IC50 (Recombinant JAK3) [µM] | IC50 (Recombinant TYK2) [µM] | IC50 [1] [µM] | IC50 ([2]; HT2, HT-2 cells) [µM] | IC50 ([2]; HT-2 cells) [µM] | Compound
9 | < 0.1 | < 0.1 | < 0.1 | > 1 | > 0.5 | > 1 |  | CNC(=O)CCC(c1ccc(-n2cc(-c3ccnc4[nH]cnc34)cn2)nc1)C(F)(F)F (stereo not drawn) [Example 1148, 4-(6-(4-(3H-imidazo[4,5-b]pyridin-7-yl)-1H-pyrazol-1-yl)pyridin-3-yl)-5,5,5-trifluoro-N-methylpentanamide]
10 | < 0.1 | > 0.1 | < 0.1 | > 1 | > 0.5 | > 0.5 |  | O=C(NCCC(c1ccc(-n2cc(-c3ccnc4[nH]cnc34)cn2)nc1)C(F)(F)F)C1CC1 (stereo not drawn) [Example 1149, N-(3-(6-(4-(3H-imidazo[4,5-b]pyridin-7-yl)-1H-pyrazol-1-yl)pyridin-3-yl)-4,4,4-trifluorobutyl)cyclopropanecarboxamide]
11 | < 0.1 | < 0.1 | < 0.1 | > 0.5 | > 0.1 |  | > 0.1 | CNCCC(c1ccc(-n2cc(-c3ccnc4[nH]cnc34)cn2)nc1)C(F)(F)F (stereo not drawn) [Example 1152, 3-(6-(4-(3H-imidazo[4,5-b]pyridin-7-yl)-1H-pyrazol-1-yl)pyridin-3-yl)-4,4,4-trifluoro-N-methylbutan-1-amine]
12 | < 0.1 | < 0.1 | < 0.1 | > 1 | 1 | 3.6 |  | CS(=O)(=O)CCC(c1ccc(-n2cc(-c3ccnc4[nH]cnc34)cn2)cc1)C(F)(F)F (stereo not drawn) [Example 1190, 7-(1-(4-(1,1,1-trifluoro-4-(methylsulfonyl)butan-2-yl)phenyl)-1H-pyrazol-4-yl)-3H-imidazo[4,5-b]pyridine]
13 | 0.005 | 0.01 | 0.005 | > 0.5 | 0.43 | 1.08 |  | CC(C)NCC[C@@H](c1ccc(-n2cc(-c3ccnc4[nH]cnc34)cn2)nc1)C(F)(F)F [Example 1207, (S)-3-(6-(4-(3H-imidazo[4,5-b]pyridin-7-yl)-1H-pyrazol-1-yl)pyridin-3-yl)-4,4,4-trifluoro-N-isopropylbutan-1-amine]
14 | 0.0026 | 0.007 | 0.006 | 0.08 | > 0.1 | > 0.5 |  | CNCC[C@@H](c1ccc(-n2cc(-c3ccnc4[nH]cnc34)cn2)nc1)C(F)(F)F [Example 1217, (S)-3-(6-(4-(3H-imidazo[4,5-b]pyridin-7-yl)-1H-pyrazol-1-yl)pyridin-3-yl)-4,4,4-trifluoro-N-methylbutan-1-amine, TFA salt]
15 | 0.006 | 0.034 | 0.006 | 0.79 | 1.5 | 2 |  | CNC(=O)N1CC(C(O)(c2ccc(-n3cc(-c4ccnc5[nH]cnc45)cn3)nc2)C(F)(F)F)C1 (stereo not drawn) [Example 1246, 3-(1-(6-(4-(3H-imidazo[4,5-b]pyridin-7-yl)-1H-pyrazol-1-yl)pyridin-3-yl)-2,2,2-trifluoro-1-hydroxyethyl)-N-methylazetidine-1-carboxamide]
